Results from patent publication US20060182728A1, “Methods for treating pervasive development disorders” (priority 1999, published 2006).

Experiments:
[1] = tested on: children diagnosed as having autism; assay: Fecal Chymotrypsin Test after secretin infusion in autistic children; format: in vivo, human
Protocol: In this experiment, 16 children diagnosed as having autism were administered the following Fecal Chymotrypsin Test in accordance with an embodiment of the invention. First, approximately 2 grams of stool were collected from each child and placed in a sterile container (although it is to be understood that any quantity of stool may be collected, as 2 grams of stool is not a required amount). Each stool sample was then analyzed using, e.g., an enzymatic photospectrometry analysis as is known by those skilled in the art, to determine the level of fecal chymotrypsin in the stool. Although the enzymatic photospectrophotometry process is preferred, any suitable conventional method may be used for measuring the fecal chymotrypsin levels. This measured chymotrypsin levels of the 16 autistic children are illustrated in FIG. 13.
After determining the chymotrypsin levels of the stools, each of these levels were compared with threshold chymotrypsin levels to determine if the child was likely to benefit from secretin administration. By way of example, with the fecal chymotrypsin tests of the stool samples being performed at 30EC, normal levels of chymotrypsin are deemed to lie above 8.4 U/gram, whereas pathologically abnormal levels are deemed to lie below 4.2 U/gram. In addition, chymotrypsin levels between 8.4 U/gram and 4.2 U/gram are considered equivocal, and further testing of the individual's fecal chymotrypsin levels over a period of time should be performed.
For each of the 16 autistic children tested, a preferred secretin infusion process according to the present invention was performed involving the administering of 1 U/kg of body weight of Secretin-Ferring for a period of nine months at intervals of approximately 6 weeks. […]
In this experiment, 37 autistic children with abnormal fecal chymotrypsin levels were administered secretin over the course of 6 months using the secretin infusion process described above. Their fecal chymotrypsin (FC) levels were measured weekly using the fecal chymotrypsin test described above.

[2] = tested on: children diagnosed with ADHD; assay: Required Ritalin level of ADHD children administered secretin; format: in vivo, human; details: each of 5 ADHD children with pathologic FC level; 6 months post-secretin vs pre-secretin
Protocol: A preferred secretin infusion process includes the initial step of prepping an arm of the candidate child with an IV injection of saline. A test dose of 1 U of Secretin-Ferring is then administered to the child. Approximately one minute after infusion, the child is examined for signs of allergic reaction including rash, increased heart rate, and increase of blood pressure. […] Subsequently, each child receives a 1 U/kg of body weight infusion of Secretin-Ferring approximately every 6 weeks for 9 months. It is to be understood that any commercially available form of secretin may be used.
In this experiment, the fecal chymotrypsin levels of 34 children diagnosed with ADHD were obtained using the fecal chymotrypsin test described above in Experiment 1, the levels of which are illustrated in FIG. 16. As shown, 32 children out of 34 children tested were determined to have sub-normal fecal chymotrypsin levels.
To determine the effect of secretin administration on ADHD children, 5 of the 24 children having a pathologic fecal chymotrypsin level were administered secretin using the secretin infusion process described above.

[3] = 6 Months Post-Secretin Administration, of 37 children, 0 pre-secretin

secretin was tested, and the “# Autistic Children w/Equivocal FC levels” value [1, 3] was 2, the “# Autistic Children w/normal FC levels” value [1, 3] was 34 and the “fecal chymotrypsin level post-secretin administration compared with pre-secretin” value ([1]; each of 16 autistic children, approximately one week after first secretin infusion, 1 U/kg IV) was “increased”. The “level of Ritalin (mg) needed to remain at the same functional level” value [2] was “significant changes”.
